From ChEMBL document CHEMBL1201862, “PubChem BioAssay data set” (2004)
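These data come from cells grown in 96-well plates and exposed to compound for 48 hours at five concentrations. GI50: concentration for 50% inhibition of growth.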 The source made the active and inactive calls. Rule as the data show it: active = GI50 up to about 1.1 µM and inactive = higher.

Assays:
Assay in all cases: DTP human tumour cell line panel, 48 h
[1] = tested on: BT-549
[2] = tested on: CCRF-CEM
[3] = tested on: HCT-116
[4] = tested on: HT-29
[5] = tested on: IGROV-1
[6] = tested on: M14
[7] = tested on: MCF7
[8] = tested on: MDA-N
[9] = tested on: MOLT-4
[10] = tested on: NCI/ADR-RES
[11] = tested on: OVCAR-3
[12] = tested on: SK-MEL-2
[13] = tested on: SN12C
[14] = tested on: TK-10
[15] = tested on: U-251
[16] = tested on: UACC-62
[17] = tested on: CAKI-1
[18] = tested on: SNB-75
[19] = tested on: NCI-H522

Measured: GI50

CCOC(=O)Cc1nnc2c(-c3ccccc3)nc3ccccc3n12
inactive: [1] > 100 µM | [2] > 100 µM | [3] 35.4 µM | [4] > 100 µM | [5] 85.7 µM | [6] > 100 µM | [7] 85.3 µM | [8] > 100 µM | [9] > 100 µM | [10] 90.6 µM | [11] 14.6 µM | [12] 28.1 µM | [13] 53.8 µM | [14] 31.2 µM | [15] 22.4 µM | [16] 44.7 µM

CSc1ncc2c(C#N)c3n(C)c4ccccc4n3c(=O)c2n1
inactive: [1] > 100 µM | [17] > 100 µM | [2] > 100 µM | [3] > 100 µM | [4] > 100 µM | [5] > 100 µM | [6] > 100 µM | [7] > 100 µM | [9] > 100 µM | [10] > 100 µM | [11] > 100 µM | [12] > 100 µM | [13] > 100 µM | [18] > 100 µM | [14] > 100 µM | [15] > 100 µM | [16] > 100 µM

COc1ccc(C(=O)/C=C/c2ccc3c(c2)OCO3)c(OCc2ccccc2)c1
inactive: [1] 4.79 µM | [17] 11.8 µM | [2] 4.3 µM | [3] 6.79 µM | [4] 6.78 µM | [5] 17.7 µM | [6] > 65.5 µM | [7] 6.22 µM | [8] 11.7 µM | [9] 3.8 µM | [19] 9.68 µM | [11] 19.1 µM | [12] > 57.1 µM | [13] 15.9 µM | [18] > 55.1 µM | [14] > 90.8 µM | [15] > 57.5 µM | [16] 17.4 µM

Cc1ccccc1Nc1cn(CCOc2ccccc2)c(=O)n(CCOc2ccccc2)c1=O
inactive: [1] > 100 µM | [17] > 100 µM | [2] > 100 µM | [3] > 100 µM | [4] > 100 µM | [5] > 100 µM | [6] > 100 µM | [7] 90.8 µM | [8] > 100 µM | [9] > 100 µM | [19] 12.5 µM | [10] > 100 µM | [11] > 100 µM | [13] > 100 µM | [15] > 100 µM | [16] > 100 µM

O=S(=O)(N/C(=N\O)Nc1ccc(Cl)cc1)c1ccc(S(=O)(=O)c2ccccc2)s1
inactive: [1] 15.4 µM | [17] 21.4 µM | [2] 19.1 µM | [3] 16.7 µM | [4] 22.3 µM | [5] 15.2 µM | [6] 18.5 µM | [7] 27 µM | [9] 12.9 µM | [19] 16.9 µM | [10] 27.5 µM | [11] 18.4 µM | [12] 17.9 µM | [13] 17.4 µM | [14] 23.8 µM | [15] 20.8 µM | [16] 14.9 µM

CN(C)c1ccc2c(SCC(=O)OCC(=O)[C@@]3(O)CC[C@H]4[C@@H]5CCC6=CC(=O)C=C[C@]6(C)[C@H]5C(=O)C[C@@]43C)c3ccc(N(C)C)cc3nc2c1
inactive: [1] 9.59 µM | [17] 23.6 µM | [2] 1.35 µM | [3] 2.82 µM | [4] 2.02 µM | [5] 6.52 µM | [6] 27.8 µM | [7] 7.03 µM | [8] 14.4 µM | [9] 2.65 µM | [19] 21.8 µM | [11] 5.24 µM | [12] 24.5 µM | [13] 7.01 µM | [18] 20.6 µM | [14] 16.3 µM | [15] 15 µM | [16] 10.8 µM

COc1ccc(CCN2C(=O)CC34C=CC(CC3C2=O)O4)cc1OC (stereo unspecified)
inactive: [1] > 100 µM | [17] > 100 µM | [2] > 100 µM | [3] > 100 µM | [4] > 100 µM | [5] > 100 µM | [6] > 100 µM | [7] > 100 µM | [8] > 100 µM | [9] > 100 µM | [10] > 100 µM | [11] > 100 µM | [12] > 100 µM | [13] > 100 µM | [14] > 100 µM | [15] > 100 µM | [16] > 100 µM

CCN(CC)C(=C(C(Cl)=C(Cl)Cl)[N+](=O)[O-])N(CC)CC
inactive: [1] 83 µM | [17] 34.8 µM | [2] 30.6 µM | [3] 87.7 µM | [4] > 100 µM | [5] 47.1 µM | [6] 92 µM | [7] > 100 µM | [8] 47.1 µM | [9] 27.2 µM | [10] 54 µM | [11] 37.5 µM | [13] 93.5 µM | [18] 22.3 µM | [14] > 100 µM | [15] > 100 µM | [16] 49.4 µM
